Key:
U937 cells = assay: Viability of U937 cells (apoptosis assay, Annexin V/7AAD); type: cell-based; conditions: 48 hours
Protocol: The half-maximal inhibitory concentration (IC-50) values were generated using Graph Pad Prism5 software (La Jolla, Calif., USA). ii) Apoptosis Assay: Leukemic cell lines were added (2×10^5 cells/well) in 24-well plates and treated with different drugs reported to disrupt the metabolic adaptation of the leukemia cells along with appropriate controls. After 48 h of incubation at 37° C. CO2 incubator, the viability of the leukemic cells was measured using an Annexin V/7-aminoactinomycin D (7AAD) apoptosis assay kit (BD Pharmingen, San Diego, Calif., USA) as per the manufacturer's protocol. The flow cytometry data were analysed using Cell Quest pro software (BD Biosciences, San Jose, Calif., USA). iii) Measurement of Glucose Uptake: 5×10^5 cells were stained with 2-NBDG (fluorescent analogue of 2-Deoxyglucose) for 10 minutes, washed and the fluorescence measured at 485 nm/595 nm using Spectramax M4.

[1] = system: acute promyelocytic leukemia (APL); conditions: standard of care; cited from earlier work
[2] = system: ATO resistant cell lines (NB4-EVAsR1, UF-1); assay: Viability of ATO resistant cell lines (apoptosis assay); type: cell-based; conditions: NB4-EVAsR1 and UF-1; 48 hours
Protocol: (§1) In particular, the effects of Metformin, Dichloroacetate (DCA) and Artesunate (ART) in combination with arsenic trioxide were evaluated. […] Methods i) In vitro cytotoxicity assay: 10^5 cells/well were seeded in a 96 well plate and treated with increasing concentration of artesunate and arsenic trioxide and incubated for 48 hours. At the end of 48 hrs MTT was added, followed by SDS to solubilize the formazan crystals formed by the viable cells. The absorbance was measured on an ELISA plate reader SpectraMaxM4 (Molecular Devices) at a test wavelength of 570 nm and a reference wavelength of 630 nm to measure the optical density. […] An IC-50 value was generated if significant cytotoxicity was detected. […] CO2 incubator, the viability of the leukemic cells was measured using an Annexin V/7-aminoactinomycin D (7AAD) apoptosis assay kit (BD Pharmingen, San Diego, Calif., USA) as per the manufacturer's protocol. The flow cytometry data were analysed using Cell Quest pro software (BD Biosciences, San Jose, Calif., USA). iii) Measurement of Glucose Uptake: 5×10^5 cells were stained with 2-NBDG (fluorescent analogue of 2-Deoxyglucose) for 10 minutes, washed and the fluorescence measured at 485 nm/595 nm using Spectramax M4. […] The ratio of red to green fluorescence (590/530) was calculated and the Δψm of treated cells compared with the untreated cells.

[3] = system: malignant cells (NB4 naïve, NB4-EVAsR1, U937, THP-1, Kasumi, Jurkat cell lines); assay: Apoptosis assay on leukemic cell lines (FIG. 5); type: cell-based; conditions: 2 μM ATO, 5 μM ART, 48 hours
Protocol: as §1

NB4 naïve cells = assay: Viability of NB4 naïve cells (apoptosis assay, Annexin V/7AAD); type: cell-based; conditions: 48 hours
Protocol: as §1

[4] = mouse, in vivo
Protocol: To further validate this in vitro observation, in vivo studies were performed on a mouse model of acute promyelocytic leukemia.

For hemin, the “viability of AML cells (Annexin V-/7AAD- cells)” value (U937 cells; hemin instead of ALA, FIG. 8) was “did not affect”.
For Arsenic trioxide [ATO], the “outcome in the management of APL” value [1] is given as “greater than 80%”.
In the case of `N#CC(C#N)=NNc1ccc(OC(F)(F)F)cc1` [FCCP, Carbonyl cyanide-4-(trifluoromethoxy)phenylhydrazone], the “viability of the ATO resistant cell lines” value [2] was “remained unaffected”.
In the case of `CN(C)C(=N)N=C(N)N` [Metformin], the “effect on the malignant cells (Annexin V-/7AAD- cells)” value [3] was “did not have a significant effect”.
In the case of `O=CC[C@@H](O)[C@H](O)[C@H](O)CO` [2-DOG, 2-Deoxy-D-glucose], the “viability of NB4 naïve cells” value (NB4 naïve cells) was “sensitive” and the “viability of the ATO resistant cell lines” value [2] was “resistant”.
For `C[C@H]1[C@H](OC(=O)CCC(=O)O)O[C@@H]2O[C@@]3(C)CC[C@H]4[C@H](C)CC[C@@H]1[C@@]24OO3` [ART, artesunate], the “effect on the malignant cells (Annexin V-/7AAD- cells)” value [3] was “did not have a significant effect”.
In the case of `NCC(=O)CCC(=O)O` [ALA, Delta-aminolevulinic acid], the “viability of AML cells (Annexin V-/7AAD- cells)” value (U937 cells; ATO 1 μM, ART 5 μM, ALA 1 mM, DFO 20 μM, FIG. 7) was “did not affect” and the toxicity in mice [4] was “significant toxicity”.

From US11400112B2, “Combination therapy for treatment of leukemia” (St George's Hospital Medical School, priority 2018, dated 2022)
